“And” between values parts separate entries of the source, which are not always exact repeats. Identical values can stand only once. Starred links: 1 amine or outer side, 2 acyl side, 3 side chain; linkers in the order of their positions; H or OH if unused. Positions of bridges follow the written chain, without caps; N, C: chain ends. Non-standard residues stand in square brackets, D forms with d. Residues, ends and D or L forms follow the SMILES beside them. *: point of attachment. Orn(4R-OH,5R-OCH2CH2NMe3+) = C[N+](C)(C)CCO[C@@H](N[*:3])[C@H](O)C[C@H](N[*:1])C(=O)[*:2]; pTerphenylCO(4''-OnC5H11) = CCCCCOc1ccc(-c2ccc(-c3ccc(C(=O)*)cc3)cc2)cc1; hTyr(3S-OH,4S-OH) = N[C@H](C(=O)O)[C@H](O)[C@@H](O)c1ccc(O)cc1; Pro(3S-OH,4S-Me) = C[C@H]1CN[C@H](C(=O)O)[C@H]1O; Hyp = O=C(O)[C@@H]1C[C@@H](O)CN1
Experiments:
Format in all cases: in vivo
T. mentagrophytes [1] = assay: Hair root invasion test (mycological evaluation), T. mentagrophytes dermatophytosis guinea pig model, different doses once weekly, Example 2; details: evaluated study day 12, relative to vehicle control
Experimental: (§1) Procedures for animal care and use, preparation of standard inoculum, and infection of the animals were carried out following the same steps as described in Example 1.
(§2) Infected guinea pigs were randomized into the following (1)-(5) groups (10 per group) (see Table 4): (1) a vehicle control (water+mannitol); (2) terbinafine 10 mg/kg PO days 1 and 8, as a positive control; (3) CD101 10 mg/kg SQ days 1 and 8; (4) CD101 20 mg/kg SQ days 1 and 8; and (5) CD101 40 mg/kg SQ days 1 and 8.
(§3) Animals were treated with CD101 SQ or PO (for terbinafine) once a week on days 1 and 8.
(§4) Study Day 1: Infect the animals with T. mentagrophytes and begin treatments.
(§5) Study Day 8: Last treatment.
(§6) Study Day 12: Clinical evaluation of the four quadrants in the marked area is done. Hair samples were obtained from each quadrant. Hairs (10 per quadrant) were planted in Potato Dextrose Agar, and incubated for 48 h for mycological evaluation. Procedures for clinical and mycological evaluations are described below.
(§7) The compounds was administered SQ or PO (0.3 mL/kg […]).
Hair samples were removed with sterile forceps from four quadrants. Ten hair samples from each quadrant were inoculated onto the corresponding quadrant on the Potato Dextrose agar plate and incubated at 30° C. for 2 days. The fungal growth at the hair root was examined under a stereomicroscope. The effectiveness of a compound in reducing the number of mycologically positive hair sample per treated group was expressed as percentage relative to the untreated control group of animals using the following formula:
where T=Positive hair in the test group, K=Positive hair in the Untreated control.

T. mentagrophytes [2] = assay: Clinical evaluation of infected skin, T. mentagrophytes dermatophytosis guinea pig model, different doses once weekly, Example 2; details: evaluated study day 12, relative to vehicle control
Experimental: as §1, §2, §3, §4, §5, §6, §7
Clinical assessment of local changes of the infected skin area was scored as follows:
1=Few slightly erythematous places on the skin
2=Well-defined redness, swelling with bristling hairs.
3=Large areas or marked redness incrustation, scaling, bald patches, ulcerated in places.
4=Partial damage to the integument and loss of hair
5=Extensive damage to the integument and complete loss of hair at the site of infection.
Any other local skin reactions were noted. The assessment of clinical evaluation in the change of scores per treatment group was expressed as percentage relative to the untreated control group of animals using the following formula:
where T=Scores in the test group. K=Scores in the untreated control

[3] = Tissue concentration of subcutaneously injected CD101 in cynomolgus monkeys; details: for CD101 Concentration: individual animals, at necropsy; for Mean Concentration: mean of males and females
Experimental: In this study, the tissue concentration of subcutaneously injected CD101 was evaluated in cynomolgus monkeys.
(§8) Dose levels were 30, 60, and 120 mg/kg/dose for Groups 2, 3, and 4, respectively. […] The dose volumes were 1.2, 0.3, 0.6, and 1.2 mL/kg spread evenly over 4, 1, 2, and 4 dose sites for Groups 1-4, respectively, on each day of dosing. The control and 120 mg/kg/dose groups each consisted of 5 males and 5 females, and the 30 and 60 mg/kg/dose groups each consisted of 3 males and 3 females.
The animals were observed twice daily for mortality and moribundity. Clinical examinations were performed once daily for at least 6 consecutive days, including the day of randomization, prior to randomization, prior to dosing, 1-2 hours postdosing, once daily on nondosing days, and once daily during the recovery period. Detailed physical examinations were performed at least weekly during the acclimation period until randomization, on the day of randomization, weekly (±2 days) during the study period, and on the day of the scheduled necropsies. Injection site (IS) observations were performed prior to dosing (dose sites that were utilized on that day of dosing), 1-2 hours postdosing (dose sites that were utilized on that day of dosing), once daily on nondosing days (dose sites that had been previously been utilized), and twice weekly during the recovery period. Individual body weights were recorded weekly (±2 days). Individual body weights were collected at least weekly during the acclimation period until randomization, on the day of randomization, Study Day 0 (prior to dosing), weekly (2±days) during the study period, on the day prior to the day of the scheduled necropsies (nonfasted) and on the day of the scheduled necropsies (fasted). Clinical pathology parameters (hematology, coagulation, serum chemistry, and urinalysis) were analyzed during acclimation prior to randomization (Study Day −15), and on the day of the primary (Study Day 17) and recovery (Study Day 45) necropsies. Blood samples for toxicokinetic evaluation were collected from all animals/sex/group/time point prior to dose administration and at approximately 1, 2, 4, 8, 24, 48, and 72 hours after dose administration on Study Days 0 and 12. Complete necropsies were performed on all animals, and selected organs were weighed at the scheduled necropsies. Selected tissues were examined microscopically from all animals. Fingernail, toenail, nail bed, and abdominal skin samples were collected from all animals at the scheduled necropsies for bioanalytical analysis.

[4] = Mortality, clinical observations and body weights after subcutaneous injection in cynomolgus monkeys; details: 30, 60, 120 mg/kg/dose SC once every 3 days (5 doses)
Experimental: as §8
The animals were observed twice daily for mortality and moribundity. Clinical examinations were performed once daily for at least 6 consecutive days, including the day of randomization, prior to randomization, prior to dosing, 1-2 hours postdosing, once daily on nondosing days, and once daily during the recovery period. Detailed physical examinations were performed at least weekly during the acclimation period until randomization, on the day of randomization, weekly (±2 days) during the study period, and on the day of the scheduled necropsies. […] Individual body weights were recorded weekly (±2 days). […] Clinical pathology parameters (hematology, coagulation, serum chemistry, and urinalysis) were analyzed during acclimation prior to randomization (Study Day −15), and on the day of the primary (Study Day 17) and recovery (Study Day 45) necropsies. […]

CCCCCOc1ccc(-c2ccc(-c3ccc(C(=O)N[C@H]4C[C@@H](O)[C@@H](OCC[N+](C)(C)C)NC(=O)[C@@H]5[C@@H](O)[C@@H](C)CN5C(=O)[C@H]([C@@H](C)O)NC(=O)[C@H]([C@H](O)[C@@H](O)c5ccc(O)cc5)NC(=O)[C@@H]5C[C@@H](O)CN5C(=O)[C@H]([C@@H](C)O)NC4=O)cc3)cc2)cc1 [CD101] ({pTerphenylCO(4''-OnC5H11)}-[Orn(4R-OH,5R-OCH2CH2NMe3+)]T[Hyp][hTyr(3S-OH,4S-OH)]T[Pro(3S-OH,4S-Me)]; lactam 1-C)
Percent Efficacy Mycological (T. mentagrophytes [1]; 10 mg/kg SQ days 1 and 8): 80.9%
Percent Efficacy Mycological (T. mentagrophytes [1]; 20 mg/kg SQ days 1 and 8): 82.9%
Percent Efficacy Mycological (T. mentagrophytes [1]; 40 mg/kg SQ days 1 and 8): 98.5%
Percent Efficacy Clinical (T. mentagrophytes [2]; 10 mg/kg SQ days 1 and 8): 90.5%
Percent Efficacy Clinical (T. mentagrophytes [2]; 20 mg/kg SQ days 1 and 8): 94.2%
Percent Efficacy Clinical (T. mentagrophytes [2]; 40 mg/kg SQ days 1 and 8): 98.4%
CD101 Concentration ([3]; Fingernail bed, 30 mg/kg/dose SC once every 3 days (5 doses), 30 mg/kg): 168 µg/g and 160 µg/g and 92.5 µg/g and 75.9 µg/g and 71.9 µg/g and 48.6 µg/g
Mean Concentration ([3]; Fingernail bed, 30 mg/kg/dose SC): 103 µg/g
CD101 Concentration ([3]; Fingernail bed, 60 mg/kg/dose SC once every 3 days (5 doses), 60 mg/kg): 218 µg/g and 96.7 µg/g and 251 µg/g and 159 µg/g and 175 µg/g and 184 µg/g
Mean Concentration ([3]; Fingernail bed, 60 mg/kg/dose SC): 181 µg/g
CD101 Concentration ([3]; Fingernail bed, 120 mg/kg/dose SC once every 3 days (5 doses), 120 mg/kg): 1351 µg/g and 404 µg/g and 67.1 µg/g and 129 µg/g and 346 µg/g and 332 µg/g and 330 µg/g and 147 µg/g and 283 µg/g and 114 µg/g
Mean Concentration ([3]; Fingernail bed, 120 mg/kg/dose SC): 350 µg/g
CD101 Concentration ([3]; Fingernail, 30 mg/kg/dose SC once every 3 days (5 doses), 30 mg/kg): 106 µg/g and 118 µg/g and 63.6 µg/g and 60.8 µg/g and 74.2 µg/g
CD101 Concentration ([3]; Fingernail, 60 mg/kg/dose SC once every 3 days (5 doses), 60 mg/kg): 194 µg/g and 108 µg/g and 527 µg/g and 171 µg/g and 155 µg/g and 175 µg/g
Mean Concentration ([3]; Fingernail, 60 mg/kg/dose SC): 222 µg/g
CD101 Concentration ([3]; Fingernail, 120 mg/kg/dose SC once every 3 days (5 doses), 120 mg/kg): 266 µg/g and 264 µg/g and 445 µg/g and 469 µg/g and 239 µg/g and 244 µg/g and 269 µg/g and 459 µg/g and 348 µg/g and 339 µg/g
Mean Concentration ([3]; Fingernail, 120 mg/kg/dose SC): 334 µg/g
CD101 Concentration ([3]; Skin, 30 mg/kg/dose SC once every 3 days (5 doses), 30 mg/kg): 38.2 µg/g and 44.4 µg/g and 43.7 µg/g
CD101 Concentration ([3]; Skin, 60 mg/kg/dose SC once every 3 days (5 doses), 60 mg/kg): 108 µg/g and 66.2 µg/g and 99.6 µg/g and 48.8 µg/g and 81.7 µg/g and 82.0 µg/g
Mean Concentration ([3]; Skin, 60 mg/kg/dose SC): 81.0 µg/g
CD101 Concentration ([3]; Skin, 120 mg/kg/dose SC once every 3 days (5 doses), 120 mg/kg): 133 µg/g and 132 µg/g and 32.0 µg/g and 12.2 µg/g and 141 µg/g and 151 µg/g and 77.6 µg/g and 43.1 µg/g and 135 µg/g and 15.9 µg/g
Mean Concentration ([3]; Skin, 120 mg/kg/dose SC): 87.3 µg/g
CD101 Concentration ([3]; Toenail bed, 30 mg/kg/dose SC once every 3 days (5 doses), 30 mg/kg): 76.9 µg/g and 102 µg/g and 50.5 µg/g and 86.1 µg/g and 82.9 µg/g
Mean Concentration ([3]; Toenail bed, 30 mg/kg/dose SC): 74.7 µg/g
CD101 Concentration ([3]; Toenail, 30 mg/kg/dose SC once every 3 days (5 doses), 30 mg/kg): 76.0 µg/g and 74.2 µg/g and 126 µg/g and 58.8 µg/g and 42.8 µg/g and 38.3 µg/g
Mean Concentration ([3]; Toenail, 30 mg/kg/dose SC): 69.3 µg/g
CD101 Concentration ([3]; Toenail, 60 mg/kg/dose SC once every 3 days (5 doses), 60 mg/kg): 265 µg/g and 86.7 µg/g and 198 µg/g and 106 µg/g and 160 µg/g and 79.2 µg/g
Mean Concentration ([3]; Toenail, 60 mg/kg/dose SC): 149 µg/g
CD101 Concentration ([3]; Toenail, 120 mg/kg/dose SC once every 3 days (5 doses), 120 mg/kg): 268 µg/g and 182 µg/g and 360 µg/g and 162 µg/g and 416 µg/g and 173 µg/g and 206 µg/g and 318 µg/g and 190 µg/g and 193 µg/g
Mean Concentration ([3]; Toenail, 120 mg/kg/dose SC): 247 µg/g
survival [4]: All animals survived to the scheduled necropsies
test article-related clinical observations and effects on body weights [4]: no test article-related clinical observations or effects on body weights
